The record followed here is patent US20040048243A1, “Methods and compositions for in vitro targeting” (priority 2003, published 2004).

No end group written: not given here.

One assay concerns the target T1, CD13 (Sus scrofa, UniProt P15145).
T1 construct: purchased Sigma, St Louis, Mo; L-9776
T1 sequence (P15145 2-963 limits assumed): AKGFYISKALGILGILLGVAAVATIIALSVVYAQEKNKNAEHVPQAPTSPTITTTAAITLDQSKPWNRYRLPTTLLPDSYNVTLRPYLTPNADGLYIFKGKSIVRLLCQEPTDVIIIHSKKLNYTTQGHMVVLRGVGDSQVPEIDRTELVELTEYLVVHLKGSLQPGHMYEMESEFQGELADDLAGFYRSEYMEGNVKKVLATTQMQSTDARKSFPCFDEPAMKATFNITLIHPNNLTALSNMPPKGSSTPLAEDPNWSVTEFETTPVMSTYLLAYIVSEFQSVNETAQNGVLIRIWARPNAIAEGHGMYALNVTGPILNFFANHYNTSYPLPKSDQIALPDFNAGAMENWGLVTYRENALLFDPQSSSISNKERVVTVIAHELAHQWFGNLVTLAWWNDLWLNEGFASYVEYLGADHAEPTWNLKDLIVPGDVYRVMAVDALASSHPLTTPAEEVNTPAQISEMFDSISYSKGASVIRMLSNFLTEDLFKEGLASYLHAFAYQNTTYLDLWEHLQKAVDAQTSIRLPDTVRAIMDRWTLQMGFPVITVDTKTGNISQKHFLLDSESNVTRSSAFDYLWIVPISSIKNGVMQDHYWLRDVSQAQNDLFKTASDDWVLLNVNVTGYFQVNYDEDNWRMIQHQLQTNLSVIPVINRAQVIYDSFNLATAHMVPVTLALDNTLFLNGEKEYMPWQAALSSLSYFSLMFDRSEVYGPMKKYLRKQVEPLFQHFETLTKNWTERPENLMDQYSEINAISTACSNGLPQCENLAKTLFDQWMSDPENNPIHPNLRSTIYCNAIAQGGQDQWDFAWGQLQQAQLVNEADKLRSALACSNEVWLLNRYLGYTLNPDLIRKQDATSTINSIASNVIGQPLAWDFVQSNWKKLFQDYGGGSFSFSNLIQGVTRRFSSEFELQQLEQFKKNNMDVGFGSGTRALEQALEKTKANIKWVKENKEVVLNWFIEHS
The assay can be described thus: Peptide competition of angiostatin binding to CD13. The settings on record: up to 500 μg of peptide; not shown. The protocol:
To assess protein-protein interactions, 100 ng/well of protein was coated in triplicate in 96-well plates. The plates were dried at 37° C., blocked with PBS and 3% BSA, and incubated with 10 μg/ml of rhAngiostatin in PBS+1% BSA for three hours at RT. The wells were washed three times with PBS, 3% BSA, 0.01% Tween 20 before incubation with anti-rhAngiostatin antibody (R&D Systems, Inc #AF226) at 1 μg/ml for 1 hour at RT. The wells were then washed three times with PBS, 3% BSA, 0.01% Tween 20 and incubated with […] anti-goat antibody. After washing 3 times with PBS, 0.01% Tween 20 and once with PBS, the wells were developed with p-nitrophenyl phosphate. Binding of alkaline phosphate conjugate was detected colorimetrically at […]. using an ELISA microplate reader.
Binding of angiostatin to CD13 was competitive with the NGR peptide (Burg et al., 1999) in a dose-dependent manner (not shown). Control experiments were run with the CARAC peptide (SEQ ID NO: 169) (not shown). Binding of angiostatin to CD13 was inhibited by more than 50% by 0.5 μg of NGR peptide, while binding was unaffected by up to 500 μg of CARAC peptide (SEQ ID NO: 169) (not shown).

For assay [1], the system named is cells infected by targeted phage vectors. Kind of assay: Enhancement of phage transduction by genotoxic agents or genetic trans-complementation. It is filed as cell-based. To be noted: genotoxic drug 10 μM added 36 hours after infection, analysis at 72 hours post-infection. The protocol: Semi-confluent cells were infected with 10^5 TU of phage per cell for 4 hours in serum free media, after which fresh medium supplemented with FCS was added (no phage were washed out or removed). In some experiments, a phage admixture of forward and reverse clones at 10^10 TU (forward/reverse molar ratio=1) was tested. Next, cells were incubated for 36 hours followed by the addition of genotoxic drugs (topotecan, 10 μM; cisplatin, 10 μM) or administration of UV radiation (15 J/m^2) with a cross-linker apparatus (UV Stratalinker Model 2400; Stratagene). At 72 hours post-infection, the cells were analyzed for transduction of a reporter gene (β-gal or GFP), and gene expression was normalized per cell number relative to controls.

A further assay relates to MDA-MB435 cells. The assay can be described thus: Inhibition of RGD-4C-β-gal phage transduction by synthetic peptides. It is filed as cell-based, human. The settings on record: target cells pre-incubated with synthetic peptide; dose-dependent. The protocol: (§1) In the peptide inhibition experiments, MDA-MB435 cells were cultured on 12-well plates and then incubated with 10 μg of RGD-4C peptide (SEQ ID NO: 166) or control peptides (CARAC, SEQ ID NO: 169 or CKDRFERC, SEQ ID. NO: 59) in normal growth media for 30 minutes. KS1767 cells were grown on 12-well plates and then incubated with 40 μg CTTHWGFTLC (SEQ D NO: 167) or control peptides in normal growth media for 30 minutes. After this the growth media were replaced by 500 μl of MEM containing 2% FCS and 5×10^10 transducing units (TU) of either RGD-4C-β-gal, HWGF-β-gal, or control fd-β-gal phage. Phage vectors were incubated on peptide-treated cells (three hours at 37° C., 5% CO2) followed by a media change to MEM plus 10% FCS. Transduced cells were then maintained in a cell incubator for 72 hours (37° C., 5% CO2).
(§2) In the peptide inhibition assays, β-gal activity in cell lysates was detected by the Galacto-Star® chemiluminescent reporter gene system (Tropix, Bedford, Mass.) according to the manufacturer's protocol. […] Cells were analyzed for GFP gene expression at 72 hours post infection. For GFP detection, cells were analyzed by fluorescence activated cell sorting (FACS) in a FACScan (Becton-Dickinson, San Jose, Calif.) or counted and photographed under a fluorescence microscope (Nikon).

Another assay has as its system KS1767 cells. The assay can be described thus: Inhibition of HWGF-β-gal phage transduction by synthetic peptides. It is filed as cell-based, human. To be noted: target cells pre-incubated with synthetic peptide; dose-dependent. The protocol: as §1, §2
Assay [2] relates to tumor-associated antigens in tissue sections from bone marrow metastasis. The assay can be described thus: Immunohistological staining with antibodies against peptide C. It is filed as binding, human. The settings on record: antibodies pre-incubated with GST-peptide C. The method, then:
GST-fusion proteins containing the peptide sequence from patient C were coated on multi-well plates. After incubating the plates with the patient's serum, the plates were washed. The bound IgG antibodies were eluted with 50 μl of 0.1 M glycine buffer, pH 2.2, neutralized by addition of 10 μl 1 M Tris pH 9.0, and dialyzed in PBS overnight followed by concentration of the antibody using Centricon-30 (Millipore) filters. The purified antibody (500 μg) was coupled to biotin according to the manufacturer's instructions (Vector). The biotinylated antibody was analyzed by SDS-gel electrophoresis.
Paraffin sections from patient C were stained with purified biotinylated antibodies and peptide antibodies by immunoperoxidase detection using the Dako antigen retrieval kit and DAB as a substrate. All of the sections (4 μm) were counter-stained with hematoxylin. The biotinylated immunopurified antibodies were used at a dilution of 1:100. Peptide C antibodies and purified pre-immune antibodies were used at 0.01 μg/μl. For the inhibition staining, peptide C antibodies were pre-incubated for 30 minutes at room temperature with the GST-peptide C (500μg) prior to staining. Peptide antibodies were generated in rabbits and purified using a T-gel immunoglobulin purification kit and protein G column (Pierce).

For a further assay, the target named is CD13 (Aminopeptidase N). Kind of assay: competition against rhAngiostatin binding to coated CD13, 0.5 µg peptide; not shown.
In another assay the target is T2, bovine serum albumin (bovine, UniProt P02769 25-607).
T2 construct: control protein coated on wells; also called BSA
T2 sequence (P02769 25-607 limits assumed): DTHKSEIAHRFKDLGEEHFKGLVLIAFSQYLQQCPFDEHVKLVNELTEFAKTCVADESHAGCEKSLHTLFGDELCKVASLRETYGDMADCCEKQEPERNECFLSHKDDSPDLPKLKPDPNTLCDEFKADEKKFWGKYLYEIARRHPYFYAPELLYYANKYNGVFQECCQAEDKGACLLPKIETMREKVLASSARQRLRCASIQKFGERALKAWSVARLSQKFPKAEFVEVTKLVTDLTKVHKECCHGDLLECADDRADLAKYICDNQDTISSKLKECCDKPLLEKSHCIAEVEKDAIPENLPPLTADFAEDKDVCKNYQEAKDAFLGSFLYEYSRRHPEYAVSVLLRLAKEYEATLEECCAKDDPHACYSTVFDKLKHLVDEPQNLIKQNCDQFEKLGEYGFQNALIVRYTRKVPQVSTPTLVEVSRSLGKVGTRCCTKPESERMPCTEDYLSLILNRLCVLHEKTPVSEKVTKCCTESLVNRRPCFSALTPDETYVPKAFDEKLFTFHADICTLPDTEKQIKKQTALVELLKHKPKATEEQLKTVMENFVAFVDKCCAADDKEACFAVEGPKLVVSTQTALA
The assay can be described thus: phage binding assay (FIG. 22).

`O=c1[nH]cc(F)c(=O)[nH]1` [CARAC peptide, CARAC]: the “effect on binding of angiostatin to CD13” value on CD13 is given as “unaffected”.
Regarding `CC[C@@]1(O)C(=O)OCc2c1cc1n(c2=O)Cc2cc3c(CN(C)C)c(O)ccc3nc2-1` [topotecan], in assay [1], the “gene transduction by targeted phage vectors relative to controls” value is reported as “several fold higher”.
Consider CDCRGDCFC [RGD4C peptide], for which the “inhibition of RGD-4C-β-gal phage transduction” value in the assay on MDA-MB435 cells is reported as “greater than 99%”.
Turning to CTTHWGFTLC, the “inhibition of HWGF-β-gal phage transduction” value in the assay with KS1767 cells is recorded as “greater than 90%”.
For “GST-fusion protein containing peptide C: GST-fusion protein containing peptide C (CNVSDKSC; cysteine pairing not given here; also: fused to GST)”, in assay [2], the “inhibition of anti-peptide C staining” value is recorded as “completely inhibited”.
For NGR peptide (Burg et al., 1999), in the assay with CD13 (Aminopeptidase N), the percent inhibition of angiostatin binding to CD13 is > 50%.
CVPELGHEC (cysteine pairing not given here; also: displayed on phage) [phage bearing the sequence CVPELGHEC]: the binding result with bovine serum albumin is listed as “no binding”.
